Assay results published in publication PMC5654968 (NPJ Systems Biology and Applications, 2017).
Where two headings read alike, the source gives them in different places.

Type: in vivo, rat
Experimental: Distilled water and saline were administered as vehicle to rats in each control group. […] Plasma cytokine levels were measured by ELISA or multiplex immunoassay; common metabolites and lipid mediators were analyzed by GC-MS/MS and LC-MS/MS, respectively.
Pathway maps of lipid mediators were created by using CellDesigner 4.4 software (http://www.celldesigner.org). We evaluated the effects of the treatments on specific lipid mediators and categorized them according to COX, CYP and LOX pathways by Fisher’s exact test. The proinflammatory and anti-inflammatory indices were analyzed as described by Tam et al. with modification.[22]

[1] = PM/P (polyI:C+maoto vs polyI:C), 2h
[2] = PM/P (polyI:C+maoto vs polyI:C), 4h
[3] = first value of an incomplete line, time (2h or 4h) not assignable

Row | SMILES | log2FC of plasma level (M/C (maoto vs control), 2h) | log2FC of plasma level (M/C (maoto vs control), 4h) | log2FC of plasma level (P/C (polyI:C vs control), 2h) | log2FC of plasma level (P/C (polyI:C vs control), 4h) | log2FC of plasma level [1] | log2FC of plasma level [2] | log2FC of plasma level | log2FC of plasma level [3]
1 | CCCCC/C=C\CC1OC1CCCCCCCC(=O)O (stereo not shown) [9,10-EpOME] | 0.04 | -0.80 | 0.10 | 0.36 | -0.30 | -1.14 | – | –
2 | CCCCC/C=C\C/C=C\CC(O)/C=C/C=C\CCCC(=O)O (stereo not shown) [9-HETE] | 0.09 | -0.42 | -0.22 | 0.63 | 0.30 | -1.09 | – | –
3 | CCCCC/C=C\C=C\C(O)CCCCCCCC(=O)O (stereo not shown) [9-HODE] | -0.05 | -0.53 | -0.02 | 0.50 | -0.13 | -0.97 | – | –
4 | CC/C=C\C/C=C\C=C\C(O)CCCCCCCC(=O)O (stereo not shown) [9-HOTrE] | 0.03 | -0.77 | 0.04 | 0.61 | -0.05 | -1.19 | – | –
5 | CCCCC/C=C\C=C\[C@H](CCCCCCCC(=O)O)OO [9-HpODE, 9S-hydroperoxy-10E,12Z-octadecadienoic acid] | 2.26 | -2.31 | 0.65 | 0.35 | -0.77 | -1.51 | – | –
6 | CCCCC/C=C/C=C/C(=O)CCCCCCCC(=O)O [9-KODE] | -0.09 | -0.95 | -0.17 | 0.97 | -0.03 | -1.16 | – | –
7 | CC/C=C\C/C=C\C/C=C\C=C\C(O)C/C=C\C/C=C\CCC(=O)O (stereo not shown) [10-HDoHE] | 0.15 | -0.47 | 0.01 | 0.14 | -0.04 | -0.60 | – | –
8 | CCCCC/C=C\CC(O)C(O)C/C=C\C/C=C\CCCC(=O)O (stereo not shown) [11,12-DHET] | 0.90 | 0.13 | -0.15 | 0.23 | 0.19 | -0.31 | – | –
9 | CCCCC/C=C\C[C@H]1O[C@H]1C/C=C\C/C=C\CCCC(=O)O [11,12-EET] | -0.50 | -0.33 | -0.22 | 0.37 | -0.13 | -0.59 | – | –
10 | CC/C=C\C/C=C\C/C=C\CC(O)/C=C/C=C\C/C=C\CCC(=O)O (stereo not shown) [11-HDoHE] | 0.35 | -0.42 | 0.05 | 0.13 | 0.03 | -0.58 | – | –
11 | CCCCC/C=C\C=C\C(O)C/C=C\C/C=C\CCCC(=O)O (stereo not shown) [11-HETE] | 0.15 | -0.41 | 0.23 | 0.38 | 0.04 | -0.66 | – | –
12 | CCCCCC(O)C(O)C/C=C\CCCCCCCC(=O)O (stereo not shown) [12,13-DiHOME] | 0.57 | -0.31 | 0.25 | 0.12 | 0.26 | -0.28 | – | –
13 | CC/C=C\C/C=C\CC(O)/C=C/C=C\C/C=C\CCCC(=O)O (stereo not shown) [12-HEPE] | 1.09 | -0.37 | -0.06 | 0.02 | 0.67 | -0.27 | – | –
14 | CCCCC/C=C\C[C@H](O)/C=C/C=C\C/C=C\CCCC(=O)O [12-HETE] | 1.25 | -0.38 | -0.61 | 0.37 | 1.33 | -0.36 | – | –
15 | CCCCCC(O)/C=C/C=C/C/C=C/CCCC(=O)O (stereo not shown) [12-HHT] | 0.48 | -0.39 | 0.33 | 1.13 | -0.01 | -1.45 | – | –
16 | CCCCC/C=C\CC(=O)/C=C/C=C\C/C=C\CCCC(=O)O [12-KETE] | 0.74 | -1.34 | -0.45 | 0.53 | 0.54 | -1.45 | – | –
17 | CCCCCC(=O)CCC1C(=O)CC(O)C1C/C=C\CCCC(=O)O (stereo not shown) [13,14-dihydro-15-keto-PGD2] | – | – | – | – | – | – | -0.34 | 0.70
18 | CCCCCC(=O)CC[C@H]1[C@H](O)CC(=O)[C@@H]1C/C=C\CCCC(=O)O [13,14-dihydro-15-keto-PGE2] | 0.22 | 0.13 | 1.01 | 0.22 | -0.04 | 0.42 | – | –
19 | CCCCCC(=O)CC[C@@H]1[C@@H](C/C=C\CCCC(=O)O)[C@@H](O)C[C@H]1O [13,14-dihydro-15-keto-PGF2α] | 0.41 | -0.29 | 0.56 | -0.30 | 0.05 | 0.38 | – | –
20 | CCCCCC(=O)CCC1C(O)CC(=O)C1CCC(=O)O (stereo not shown) [13,14-dihydro-15-keto-tetranor-PGE2] | 0.05 | -0.80 | 2.37 | 2.09 | -0.40 | -2.03 | – | –
21 | CCCCCC(=O)CCC1C(O)CC(O)C1CCC(=O)O (stereo not drawn) [13,14-dihydro-15-keto-tetranor-PGF1α] | – | – | – | – | – | – | 0.16 | 0.18
22 | CCCCCC(=O)CCC1C(O)CC(O)C1CCC(=O)O (stereo not drawn) [13,14-dihydro-15-keto-tetranor-PGF1β] | 0.11 | 0.40 | 0.93 | 0.27 | 0.11 | -0.01 | – | –
23 | CC/C=C\C/C=C\C=C\C(O)C/C=C\C/C=C\C/C=C\CCC(=O)O (stereo not shown) [13-HDoHE] | 0.03 | -0.44 | 0.01 | 0.18 | -0.06 | -0.62 | – | –
24 | CCCCCC(O)/C=C/C=C\CCCCCCCC(=O)O (stereo not shown) [13-HODE] | 0.14 | -0.46 | 0.15 | 0.36 | -0.11 | -0.80 | – | –
25 | CC/C=C\CC(O)/C=C/C=C\CCCCCCCC(=O)O (stereo not shown) [13-HOTrE] | 0.23 | -0.43 | 0.16 | 0.11 | -0.20 | -0.60 | – | –
26 | CCCCC[C@@H](/C=C/C=C\CCCCCCCC(=O)O)OO [13-HpODE] | 2.37 | -2.47 | 0.75 | 0.25 | -0.76 | -1.63 | – | –
